Experiments:
M1 muscarinic receptor = target: T1, M1 muscarinic receptor (Homo sapiens, UniProt P11229); experiment: Muscarinic receptor radioligand displacement binding, M1
T1 sequence (P11229 1-460): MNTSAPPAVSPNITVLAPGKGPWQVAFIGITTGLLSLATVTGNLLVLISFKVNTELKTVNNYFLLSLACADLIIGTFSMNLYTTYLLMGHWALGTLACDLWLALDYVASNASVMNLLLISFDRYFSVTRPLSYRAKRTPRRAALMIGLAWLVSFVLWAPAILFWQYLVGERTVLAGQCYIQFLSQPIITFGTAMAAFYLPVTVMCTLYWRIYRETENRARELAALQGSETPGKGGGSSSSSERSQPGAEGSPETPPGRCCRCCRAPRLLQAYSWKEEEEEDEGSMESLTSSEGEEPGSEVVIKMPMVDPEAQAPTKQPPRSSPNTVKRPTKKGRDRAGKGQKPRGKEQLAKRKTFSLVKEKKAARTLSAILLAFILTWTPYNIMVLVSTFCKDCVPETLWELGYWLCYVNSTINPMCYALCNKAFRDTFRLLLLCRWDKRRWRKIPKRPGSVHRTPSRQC

M4 muscarinic receptor = target: T2, M4 muscarinic receptor (Homo sapiens, UniProt P08173); experiment: Muscarinic receptor radioligand displacement binding, M4
T2 sequence (P08173 1-479): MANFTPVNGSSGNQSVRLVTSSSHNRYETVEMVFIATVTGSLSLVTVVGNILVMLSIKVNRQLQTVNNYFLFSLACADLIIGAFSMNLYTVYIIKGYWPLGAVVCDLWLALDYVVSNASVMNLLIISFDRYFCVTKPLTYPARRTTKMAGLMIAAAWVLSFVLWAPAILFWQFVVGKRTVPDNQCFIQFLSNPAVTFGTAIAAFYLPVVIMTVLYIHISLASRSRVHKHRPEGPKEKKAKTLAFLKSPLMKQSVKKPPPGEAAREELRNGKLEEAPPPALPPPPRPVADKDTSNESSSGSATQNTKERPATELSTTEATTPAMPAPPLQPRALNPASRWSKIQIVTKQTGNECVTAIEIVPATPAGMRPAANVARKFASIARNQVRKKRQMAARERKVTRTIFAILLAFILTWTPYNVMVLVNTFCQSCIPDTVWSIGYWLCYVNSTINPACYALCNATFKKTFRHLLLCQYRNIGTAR

M5 muscarinic receptor = target: T3, M5 muscarinic receptor (Homo sapiens, UniProt P08912); experiment: Muscarinic receptor radioligand displacement binding, M5
T3 sequence (P08912 1-532): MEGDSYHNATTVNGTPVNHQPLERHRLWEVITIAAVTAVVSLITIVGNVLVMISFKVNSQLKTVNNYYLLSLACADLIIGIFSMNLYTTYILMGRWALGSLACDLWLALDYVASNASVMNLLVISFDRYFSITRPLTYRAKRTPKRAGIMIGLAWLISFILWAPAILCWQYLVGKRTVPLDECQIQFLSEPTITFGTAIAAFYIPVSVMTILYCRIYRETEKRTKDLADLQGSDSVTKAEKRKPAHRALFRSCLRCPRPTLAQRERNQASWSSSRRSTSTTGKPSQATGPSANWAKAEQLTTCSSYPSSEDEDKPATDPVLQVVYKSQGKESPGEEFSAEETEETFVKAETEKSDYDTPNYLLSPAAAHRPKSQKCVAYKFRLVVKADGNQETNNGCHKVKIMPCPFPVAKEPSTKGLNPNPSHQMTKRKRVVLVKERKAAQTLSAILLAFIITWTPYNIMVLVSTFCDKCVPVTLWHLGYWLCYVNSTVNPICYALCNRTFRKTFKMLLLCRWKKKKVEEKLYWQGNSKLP

[1] = system: form deprivation-induced myopia (FDM); experiment: Form deprivation-induced myopia (FDM) chick model; assay type: in vivo
[2] = pH adjustment of methyl atropine and benzyl atropine solutions, HPLC analysis; assay type: physicochemical; conditions: for Actual concentration (HPLC) / pH after incubation (24 hours): after pH adjustment; for Initial pH: before pH adjustment
[3] = Solubility of benzyl atropine in surfactants (single excipients); assay type: physicochemical
Description: Initially, single excipients were evaluated (Table 8).

[4] = Concentration of benzyl atropine in surfactant mixtures; assay type: physicochemical
[5] = HPβCD as a solubilizer for benzyl atropine; assay type: physicochemical; conditions: pH 3.1
[6] = Solubility screen in two simple vehicles, pH 7.4; conditions: for pH of the formulation / Actual Concentration: pH 7.4; for Actual Concentration: 5 min vortexing
[7] = Solubilizing mixtures with citrate and acetate buffers; conditions: for Actual Conc. / Final pH: 7.0% PEG-40 Stearate, 5.0% PEG-35 Castor Oil
[8] = 0.3% Tyloxapol in Phosphate Buffer, pH 2.8
[9] = 2.0% Poloxamer 407 in Phosphate Buffer, pH 2.8
[10] = 4.0% Tween 80 in Phosphate Buffer, pH 2.9
[11] = 5.0% PEG-35 Castor Oil in Acetic Acid Buffer, pH 2.8
[12] = 5.0% PEG-35 Castor Oil in Phosphate Buffer, pH 2.8
[13] = 7.0% PEG0-40 Stearate in Phosphate Buffer, pH 3.0
[14] = 20% DMSO in Phosphate Buffer, pH 2.7
[15] = 50% Glycerol in Phosphate Buffer in Phosphate Buffer, pH 2.5
[16] = 50% Propylene Glycol in Phosphate Buffer, pH 2.9
[17] = 0.43% Sodium Chloride, 10.0% HPβCD in 20 mM Phosphate Buffer
[18] = 2.21% Mannitol, 10.0% HPβCD in 20 mM Phosphate Buffer
[19] = 2.5% HPβCD in 20 mM Phosphate Buffer
[20] = 5.0% HPβCD in 20 mM Phosphate Buffer
[21] = 10.0% HPβCD in 20 mM Phosphate Buffer
[22] = 20 mM Citrate Buffer, pH 3.0 before API, 5.0% PEG-400
[23] = 20 mM Citrate Buffer, pH 4.65 before API, 5.0% PEG-400
[24] = 30 mM Acetate Buffer, pH 4.38 before API, 3.5% PEG-400
[25] = 30 mM Acetate Buffer, pH 4.56 before API, 3.5% PEG-400
[26] = 30 mM Acetate Buffer, pH 5.11 before API, 5.0% PEG-400

CN1C2CCC1CC(OC(=O)C(CO)(Cc1ccccc1)c1ccccc1)C2 (racemic) [Benzyl Atropine, benzyl atropine]
Ki (M1 muscarinic receptor): 830 nM | binding to the receptor (in words) (M1 muscarinic receptor): bind weakly | Ki (M4 muscarinic receptor): 600 nM | binding to the receptor (in words) (M4 muscarinic receptor): bind weakly | binding to the receptor (in words) (M5 muscarinic receptor): not to bind at all | efficacy compared with atropine in FDM chick model ([1]; at approximately ten-fold lower concentration than atropine, FIG. 1 Panel B (24 nmol vs 240 nmol)): as effective as atropine | efficacy in FDM chick model ([1]; intravitreal injection day 2 and day 4, readout day 5, FIG. 1 Panel A): effective | change in refractive error (goggled eye value minus ungoggled eye value) ([1]; with respect to 5% v/v ethanol solution, FIG. 1 Panel A): significantly decreased | Actual concentration (HPLC) ([2]; 30 mM Phosphate Buffer, pH 7.4): 0.05 mg/g | pH after incubation (24 hours) ([2]; 30 mM Phosphate Buffer, pH 7.4): 6.23 | Initial pH ([2]; 30 mM Phosphate Buffer, pH 7.4): 7.7 | Actual concentration (HPLC) ([2]; Phosphate Buffered Saline): 0.04 mg/g | pH after incubation (24 hours) ([2]; Phosphate Buffered Saline): 5.7 | Initial pH ([2]; Phosphate Buffered Saline): 7.7 | dissolution upon pH adjustment (in words) ([2]; lowered pH of the vehicle): did not fully dissolve | Actual Concentration ([3]; 50% Propylene Glycol in 30 mM Phosphate Buffer, pH 7.4): 1.85 mg/g | Actual Concentration ([3]; PEG-400 (neat)): 8.01 mg/g | drug solubility ([3]; PEG-400 (neat)): 0.8% | Actual Concentration ([3]; Polypropylene Glycol (neat)): 7.86 mg/g | Actual Concentration ([3]; Propylene Glycol (neat)): 6.96 mg/g | Actual Concentration [4, 8]: 0.19 mg/g | pH after API Dissolution [4, 8]: 7.3 | Actual Concentration [4, 9]: 0.20 mg/g | pH after API Dissolution [4, 9]: 7.4 | Actual Concentration [4, 10]: 0.58 mg/g | pH after API Dissolution [4, 10]: 7.3 | Actual Concentration [4, 11]: 1.16 mg/g | pH after API Dissolution [4, 11]: 3.1 | Actual Concentration [4, 12]: 0.68 mg/g | pH after API Dissolution [4, 12]: 7.3 | Actual Concentration [4, 13]: 0.47 mg/g | pH after API Dissolution [4, 13]: 7.4 | Actual Concentration [4, 14]: 0.30 mg/g | pH after API Dissolution [4, 14]: 8.1 | Actual Concentration [4, 15]: 0.84 mg/g | pH after API Dissolution [4, 15]: 7.6 | Actual Concentration [4, 16]: 1.56 mg/g | pH after API Dissolution [4, 16]: 8.3 | Actual Concentration [5, 17]: 5.92 mg/g | Final pH [5, 17]: 5.8 | Actual Concentration [5, 18]: 5.23 mg/g | Final pH [5, 18]: 5.7 | Concentration Dissolved [5, 19]: 3.53 mg/g | Final pH [5, 19]: 7.1 | Concentration Dissolved [5, 20]: 4.16 mg/g | Final pH [5, 20]: 7.0 | Concentration Dissolved [5, 21]: 4.51 mg/g | Final pH [5, 21]: 7.1 | pH of the formulation ([6]; 30 mM Phosphate Buffer): 7.9 | Actual Concentration ([6]; 30 mM Phosphate Buffer): 0.29 mg/g | pH of the formulation ([6]; Phosphate Buffered Saline): 8.0 | Actual Concentration ([6]; Phosphate Buffered Saline): 0.30 mg/g | dissolution in vehicle (in words) ([6]; both vehicles: 30 mM phosphate buffer pH 7.4 and phosphate-buffered saline pH 7.4): did not entirely dissolve | Actual Conc. [7, 22]: 5.73 mg/g | Final pH [7, 22]: 4.4 | Actual Conc. [7, 23]: 2.38 mg/g | Final pH [7, 23]: 5.8 | Actual Conc. [7, 24]: 5.49 mg/g | Final pH [7, 24]: 4.9 | Actual Conc. [7, 25]: 5.42 mg/g | Final pH [7, 25]: 5.5 | Actual Conc. [7, 26]: 3.59 mg/g | Final pH [7, 26]: 7.7 | saturated solubility limit ([7]; from stability assessment, compound crashed out of solution over storage): ~5 mg/g

Source: patent publication US12527739B2 (Alcon Inc., priority 2022, dated 2026)
